Experimental data reported in publication PMC7707092, “Discovery and characterization of ORM‐11372, a novel inhibitor of the sodium‐calcium exchanger with positive inotropic activity” (British Journal of Pharmacology, 2020).
Values after ≈ are worked out from the molar mass of the structure shown. Where two headings read alike, the source gives them in different places.

Columns and labels:
Solubility = format: physicochemical; settings: pH 7.4 phosphate buffer; for solubility: phosphate buffer, pH 7.4, aqueous buffer
hNCX1 = hNCX1 (Homo sapiens, UniProt P32418); assay: Confirmatory fluorescence assay for hNCX1 inhibition (forward mode, HEK293 cells, Charles River); format: cell-based; settings: HEK293, forward mode, Table S2; read-out: hNCX1-HEK IC50
Experimental: A confirmatory hNCX1 inhibition assay was performed in Charles River Laboratories, Cleveland. Briefly, HEK293 cells stably expressing hNCX1 were plated in 384‐well black wall, clear‐bottom microtitre plates and the next day loaded with Fluo‐8 for 30 min at 37°C. A plate was inserted into a FLIPR^TETRA, and a baseline was recorded during a preincubation period where test compound or vehicle in a Na^+‐free HB‐PS containing thapsigargin (6 μM) and […] (30 μM) was added to each well for ~5 min. Next, the NCX1 stimulation period was recorded in which Na^+‐containing HB‐PS (with 2‐μM thapsigargin and 10‐μM FCCP) was added. The experiments were performed at room temperature. The kinetic data generated were reduced for each well to maximum relative fluorescence units (RFU) minus minimum RFU after subtracting bias based on the first sample. The mean of the max–min RFU values during the stimulation period for the 3–4 replicates at each concentration on a plate was then plotted versus concentration and fitted to a Hill equation.

human NCX 1.1 = target: T1, human NCX 1.1 (Homo sapiens, UniProt P32418); assay: Fluorescence screening assay for hNCX 1.1 inhibition (reverse mode, Sf9 cells); format: cell-based; settings: for IC50: Sf9 cells expressing human NCX1.1, reverse mode, fluorescence, n=3 assays
T1 construct: expressed in transfected cells
Experimental: Spodoptera frugiperda (Sf9; RRID:CVCL_0549) cells are widely used for the transient and stable expression of recombinant proteins. Here, Sf9 cells were stably transfected with human NCX 1.1 and maintained in spinner flasks with insect cell culture medium (TNM‐FH), supplemented with 10% FBS, antibiotic–antimycotic solution, and 50 μg·ml^−1 of blasticidin at 28°C in a non‐humidified, CO2‐free atmosphere. The Sf9 cell suspension was subcultured three times a week.
NCX reverse mode activity was stimulated via a 50% dilution of the extracellular Na^+ level using the internal pipettor of FLEXstation, a fluorescence imaging plate reader (Molecular Devices, USA), while simultaneously monitoring intracellular calcium levels. After dilution, the concentration of other ions remained the same, but Na^+ concentration was diluted to the half of original concentration of 172 to 86 mM. For Sf9 insect cells, normal extracellular Na^+ ion concentration is 172 mM. Typically, 50 μl of a solution containing 150,000–200,000 Sf9–NCX cells was loaded onto each well of a 96‐well plate. Cells were preincubated with the intracellular calcium dye Fluo‐4 and Fluo‐6, and the concentrations of the test compound (three replicates) were determined for about 1 h at room temperature before experimentation. The extracellular solution contained (in mM) 172 NaCl, 10 HEPES, 1 CaCl2, 1.2 MgCl2, 0.33 NaH2PO4, 5 glucose, and 5 probenecid. The pH was adjusted to 7.4 with NaOH. The extracellular Na^+ was diluted by the addition of a Na^+‐free extracellular solution (containing in mM: 147 N‐methyl‐D‐glucamine (NMDG), 10 HEPES, 1 CaCl2, 1.2 MgCl2, 0.33 NaH2PO4, and 5 glucose with the pH adjusted by HCl to 7.4)‐induced robust and reproducible elevation of intracellular calcium. The osmolarity of both solutions was adjusted to 340–355 mOsm in order to match the Sf9 cell media osmolarity. In each plate, the IC50 determination for each test compound was based on relative fluorescence changes in comparison with control and 5‐mM nickel acetate‐induced NCX inhibition.

NCX = system: NCX; set-up: method as in Jost et al., 2013; Kohajda et al., 2016; settings: Dog, reference not given, ref Jost et al., 2013, Kohajda et al., 2016, cited from earlier work
hERG = hERG (Homo sapiens, UniProt Q12809); assay: hERG IC50 of Table 1 / Table S2 (method not assigned); format: cell-based; settings: n=4 assays
Sequence of hERG (Q12809 whole entry): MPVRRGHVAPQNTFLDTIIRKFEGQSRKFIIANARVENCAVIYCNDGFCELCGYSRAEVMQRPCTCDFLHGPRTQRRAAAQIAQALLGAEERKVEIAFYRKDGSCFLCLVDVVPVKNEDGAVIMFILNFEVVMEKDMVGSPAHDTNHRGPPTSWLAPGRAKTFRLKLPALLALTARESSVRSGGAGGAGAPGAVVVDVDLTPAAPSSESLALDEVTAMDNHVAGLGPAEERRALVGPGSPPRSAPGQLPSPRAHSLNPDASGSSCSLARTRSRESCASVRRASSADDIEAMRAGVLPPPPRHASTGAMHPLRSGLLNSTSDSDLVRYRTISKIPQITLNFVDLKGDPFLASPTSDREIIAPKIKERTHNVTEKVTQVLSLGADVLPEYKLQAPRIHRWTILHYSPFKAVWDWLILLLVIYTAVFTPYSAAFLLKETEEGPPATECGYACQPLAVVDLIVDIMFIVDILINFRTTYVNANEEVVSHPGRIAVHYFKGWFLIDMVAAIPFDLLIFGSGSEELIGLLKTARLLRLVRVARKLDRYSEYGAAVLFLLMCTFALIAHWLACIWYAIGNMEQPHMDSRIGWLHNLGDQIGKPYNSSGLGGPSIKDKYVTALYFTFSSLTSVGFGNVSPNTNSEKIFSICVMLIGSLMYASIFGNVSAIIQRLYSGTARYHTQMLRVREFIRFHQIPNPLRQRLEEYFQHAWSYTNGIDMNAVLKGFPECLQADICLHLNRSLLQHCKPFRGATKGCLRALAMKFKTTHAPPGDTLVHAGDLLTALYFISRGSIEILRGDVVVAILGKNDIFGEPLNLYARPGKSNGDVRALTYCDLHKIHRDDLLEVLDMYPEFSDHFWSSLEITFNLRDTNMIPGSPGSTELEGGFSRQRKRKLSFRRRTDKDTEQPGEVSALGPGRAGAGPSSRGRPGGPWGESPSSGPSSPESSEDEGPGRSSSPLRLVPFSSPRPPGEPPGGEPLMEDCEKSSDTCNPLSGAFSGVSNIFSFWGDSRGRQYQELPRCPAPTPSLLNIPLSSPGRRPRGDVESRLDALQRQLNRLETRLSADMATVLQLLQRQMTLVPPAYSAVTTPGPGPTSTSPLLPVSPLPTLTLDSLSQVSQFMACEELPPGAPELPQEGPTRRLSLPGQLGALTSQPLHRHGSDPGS

L‐type calcium channel = L‐type calcium channel inhibition, fluorescence assay in IMR‐32 cells; format: cell-based, human; settings: KCl depolarization, n=4 assays, read-out: L‐type Ca^2+ IC50
Experimental: CHO cells stably expressing either hERG1a (KV11.1) channels (KCNH2; RRID:CVCL_H512) or human 5‐HT2B receptors were cultured at 37°C in a 5% CO2/95% air atmosphere in the Ham's Nutrient Mixture F‐12 (HAM F‐12) medium supplemented with 10% FBS (heat inactivated), 100 μg·ml^−1 of hygromycin B (Invitrogen), and 100 μg·ml^−1 of geneticin or 100 IU·ml^−1 of penicillin and 100 IU·ml^−1 of streptomycin, 25‐mM HEPES, 500 μg·ml^−1 of geneticin, and 250 μg·ml^−1 of Zeocin®. Adhered cells were detached using either Detachin® solution or trypsin and replated twice a week. HEK 293 (RRID:CVCL_0045) and IMR‐32 cells (CCL‐127; RRID:CVCL_0346) were cultured similarly but maintained instead in DMEM, supplemented with 10% FBS (heat inactivated), 100 IU·ml^−1 of penicillin and 100 IU·ml^−1 of streptomycin, and 25‐mM HEPES, and in the case of the IMR‐32 cell line, with minimum essential medium (MEM) non‐essential amino acids. IMR‐32 cells are derived from a human neuroblastoma and endogenously express L‐type (CaV1.x) calcium channel (Sher, Gotti, Pandiella, Madeddu, & Clementi, 1988).
Undifferentiated IMR‐32 cells were harvested, centrifuged, and resuspended in a probenecid‐Ringer solution consisting (in mM) 150 NaCl, 3 KCl, 1.2 MgCl2, 1 CaCl2, 20 HEPES, 5 glucose and 2.5 probenecid (pH 7.4 adjusted with NaOH, osmolarity 320–324 mOsm). We added 0.04% Pluronic F‐127 and Fluo‐4 to this solution, and after incubating the cells for 30 min at room temperature, these additives were removed from the probenecid‐Ringer solution by centrifugation and resuspension. The cell suspension was pipetted (250,000 cells in 75 μl per well) into a 96‐well plate, into which the test compound (75 μl per well at […] the final concentration; five concentrations with eight replicates) had already been added. The plate was centrifuged once (5 min, at 287 x g) to ensure that the cells were moved to the bottom of the wells. FLEXstation was then used to measure the increase in intracellular calcium at 37°C, following depolarization, which was induced by the addition (50 μl per well) of a KCl‐Ringer solution containing (in mM) 200 KCl, 20 CaCl2, 1.2 MgCl2, 20 HEPES and 2.5 probenecid respectively (pH adjusted to 7.4 with KOH, with an osmolarity of 320–324 mOsm).

[1] = system: human ventricular trabeculae; settings: 1 or 2 Hz; ORM‐11372 any tested concentration; dofetilide 0.1 μM (positive control)
healthy rats = assay: In vivo haemodynamics in healthy rats (supplement); set-up: species or system rat
From the text: In vivo haemodynamics in healthy rats
Experimental Animals and General Study Protocol
Rat was selected to the study as it is the most widely used rodent species in the toxicology studies performed for the small molecules during the drug development. […]
All animal experiments were made according to European Community Guidelines for the use of experimental animals and approved by Finnish National Animal Experiment Board. All studies complied with the ARRIVE guidelines, (NC3Rs Reporting Guidelines Working Group, 2010).
Specific pathogen free animals were housed in half -barrier rooms where special protecting clothing for personnel was required. Animal rooms were cleaned regularly 3 times per week and cages and bottles were […]
changed regular intervals once a week. Temperature was maintained at 22 ± 2°C and humidity at 55 ± 15%.
Light-dark cycle was lights on from 06.00 to 20.00h.
Male Sprague-Dawley rats (Harlan, Netherlands B.V.) were housed in polycarbonate cages (Makrolon® IV with stainless steel wire mesh lids). Maximally 5 rats were housed per cage with aspen chip bedding (Tapvei Ky, Kaavi, Finland). Rats had free access to water (twice filtered, Espoon Vesi) and rodent diet (SDS RM1
(P) SQC pelleted diet, Special Diet Services Ltd, Witham, England). Acclimation period before experiments was at least 5 days. Healthy 10-12 weeks aged weighing 300-400 g rats were randomized to ORM-11372, dobutamine or vehicle group.
At the end of the haemodynamic experiments, rats were terminated with an overdose of pentobarbital.
Anesthesia and ventilation
Rats were anaesthetised with isoflurane (2.25-2.5 %, Baxter) in carbogen (95 % O2 and 5 % CO2) and nitrous oxide (1:1) using a small rodent ventilator (Ugo Basile 7025, ~10 ml/kg, 60 strokes/min). The rats were infused with 0.9 % NaCl in […] at the stabilization and baseline level. Animals were placed on a heating table (+38°C). Tracheas were cannulated.
Systemic blood (SP) and left ventricular pressures (LVP) were measured with pressure transducers (BP:
Isotec, Hugo Sachs Elektronic, Germany; LVP: Mikro-Tip transducer SPR-249, Millar Instruments, USA). The signal was amplified (DC-bridge amplifier type 660, Hugo Sachs Elektronik, Germany), digitised (I/O connector block type SCB-68, National Instruments, USA), recorded and analysed (IHME 1.0.9, Fision Ltd, Finland). Left ventricular inotropic effect (LV +dP/dtmax) and relaxation (LV -dP/dtmin) and heart rate (HR) were analysed from LVP signal.
Blood sampling for the evaluation of plasma levels of the drug
At the end of each infusion, the blood samples (300-500 µl) were taken into chilled EDTA polypropylene tube (CapiJect®, Terumo) and centrifuged (4000 rpm, 10 min, at 4°C). Plasma was immediately frozen in polypropylene tubes and stored at –20°C. ORM-11372 and dobutamine were extracted from plasma samples using a liquid–liquid extraction and analysed using liquid chromatography–tandem mass spectrometry (Agilent Technologies series 1100 liquid chromatographic system and a Sciex LC-MS/MS API 4000 mass spectrometry). The lower limit of quantification for total plasma concentrations were 32.0 and 5.00 ng/ml from total for ORM-11372 and dobutamine, respectively. […]
The effects of dobutamine on blood pressure varies partially due to the use of racemate as active ingredient in the pharmaceutical formulation. (-)-dobutamine is α1-agonist and therefore causes increases in cardiac output and peripheral resistance. (+)-dobutamine acts via β1- and β2-adrenoceptors which leads to increase in heart rate and reduction in blood pressure 16.
Figure S20 Haemodynamics in healthy rats
Effects of ORM-11372 and dobutamine on haemodynamics in isoflurane anesthetized 10-12 weeks aged male Sprague-Dawley rats (Harlan, Netherlands B.V.) weighing 300-400 g. Shown are mean ± SEM and individual effects on the left ventricular contractility (LV+dP/dtmax, panel A), relaxation (LV-dP/dtmax, panel B), heart rate (panel C), and systolic arterial blood pressure (SAP, paned D). […]

Row | SMILES | IC50 (human NCX 1.1) | solubility (Solubility; read-out: Solubility class) | IC50 (hERG) | other results
1 | O=[N+]([O-])c1ccc(Oc2ccc3c(c2)CCC(c2ccccc2)O3)nc1 (centres unmarked) [ORM-10103] | 176 nM |  |  | Solubility class (Solubility): Insoluble (insoluble less than 10 µg/ml); IC50 (hNCX1): 1850 nM; IC50 (NCX; read-out: IC50 NCX forward): 960 nM; IC50 (NCX; read-out: IC50 NCX reverse): 780 nM
2 | Fc1ccc(NCc2ccc(-c3ccccc3Cl)o2)cc1Cl [ORM‐11165] | 4 nM | < 10 µg/mL | 9000 nM | IC50 (L‐type calcium channel): 2000 nM
3 | CN(CCOc1ccc(NS(C)(=O)=O)cc1)CCc1ccc(NS(C)(=O)=O)cc1 [dofetilide, reference compound] |  |  |  | STV and triangulation (pro‐arrhythmia markers) [1]: increased
4 | Fc1ccc(NCc2coc(-c3ccccc3)n2)cc1Cl [ORM‐11298] | 31 nM | 10 to 100 µg/mL (≈ 33 to 330 µM) | > 10000 nM | 
5 | Fc1ccc(NCc2ccc(-c3ccc(Cl)cc3)o2)cc1Cl [ORM‐11190] | 204 nM |  |  | 
6 | O=[N+]([O-])c1ccccc1-c1ccc(CNc2ccccc2)o1 [ORM‐11024] | 875 nM |  |  | 
7 | Fc1ccc(NCc2ccc(-c3cccc(Cl)c3)o2)cc1Cl [ORM‐11217] | 210 nM | 10 to 100 µg/mL (≈ 29.7 to 297 µM) | 14600 nM | 
8 | CC(CCc1ccc(O)cc1)NCCc1ccc(O)c(O)c1 (centres unmarked) [dobutamine, reference compound] |  |  |  | absolute maximum positive inotropic effect (healthy rats): 59%; free plasma concentration achieving 25% positive inotropic effect (healthy rats): 25 ± 1.6 nM; free plasma concentration at absolute maximum positive inotropic effect (healthy rats): 199 ± 17 nM; free plasma concentration at the 10±2% (ORM-11372) / 16±3% (dobutamine) inotropic effect (healthy rats): 16 ± 0.8 nM; positive inotropic effect (healthy rats; at free plasma concentration 4±0.3 nM (ORM-11372), 16±0.8 nM (dobutamine)): 16±3%; increase in heart rate (healthy rats; free plasma concentration 96 nM): 15±5%; increase in heart rate (healthy rats; free plasma concentration 848 nM): 25±7%; relaxation (healthy rats; free plasma concentrations 16 to 199 nM): no effects
9 | O=[N+]([O-])c1cccc(-c2ccc(CNc3ccc(F)c(Cl)c3)o2)c1 [ORM‐11023] | 156 nM |  |  | 

Second part, led by results:

Row | IC50 (human NCX 1.1) | solubility (Solubility; read-out: Solubility class) | SMILES | IC50 (hERG) | other results
10 | 3 nM | < 10 µg/mL | Fc1ccc(NCc2ccc(-c3ccccn3)o2)cc1F [ORM‐11817] | 2400 nM | IC50 (L‐type calcium channel): 10400 nM
11 | 231 nM | < 10 µg/mL | O=[N+]([O-])c1ccccc1-c1ccc(CNc2ccc(F)c(Cl)c2)o1 [ORM‐120407, 3-chloro-4-fluoro-N-((5-(2-nitrophenyl)furan-2-yl)methyl)aniline] | 2100 nM | solubility (Solubility; read-out: Solubility): < 10 µg/mL; inhibition at 10 µM (human NCX 1.1; 10 μM, fluorescence‐based assay, read-out: NCX1.1 inhibition): 87%; IC50 (L‐type calcium channel): 3100 nM
12 | 90 nM | 10 to 100 µg/mL (≈ 34.9 to 349 µM) | Fc1ccc(NCc2ccc(-c3cccnc3)o2)cc1F [ORM‐11875] |  | 
13 | 2.5 nM | < 10 µg/mL | Fc1ccc(NCc2csc(-c3ccccc3Cl)n2)cc1F [ORM‐11863] |  | 
